Experimental findings from paper PMC7735563, “5,5-Dialkylluciferins are thermal stable substrates for bioluminescence-based detection systems” (PLoS ONE, 2020) are described below.

SMILES strings stand for the structures.

The assay concerns T1, Ultra-Glo™ luciferase.
T1 construct: gene Firefly luciferase; HisLink purified; starting enzyme also obtained from Promega
Put plainly: luminescence, Michaelis-Menten. The format is biochemical. The note with it: 1 mM ATP, Bright-Glo buffer, 25 °C. The text has this: luminescence, Michaelis-Menten on Ultra-Glo™ luciferase
As a reminder, the Km is the substrate concentration at which the rate is half of its maximum. `O=C(O)[C@H]1CSC(c2nc3ccc(O)cc3s2)=N1` [LH2, D-luciferin]: the Km amounted to 0.49 µM.

With `O=C(O)C1N=C(c2nc3ccc(O)cc3s2)SC12CC2` (racemic) [III-b, 5-(6-Hydroxybenzo[d]thiazol-2-yl)-4-thia-6-azaspiro[2.4]hept-5-ene-7-carboxylic acid], the Km was found to be 1.71 µM.

Regarding `CC1(C)SC(c2nc3ccc(O)cc3s2)=NC1C(=O)O` (racemic) [III-a, 2-(6-Hydroxybenzo[d]thiazol-2-yl)-5,5-dimethyl-4,5-dihydrothiazole-4-carboxylic acid], the Km is 7.47 µM.
